Measurements reported in patent US20220389500A1, “PURIFYING AND POLYMERIZING 3'-BLOCKED NUCLEOTIDES” (ILLUMINA, INC., priority 2021, published 2022).

B1: NNNNNNNNNNNNNNNNNNNN CGGCCATATAACTGGTAGCTTTTTTAAGCTACC AGTT AT ATG GCC G (nucleic acid)
DNA: NNNNNNNNNNNNNNNNNNNNCGGCCATATAACTGGTAGCTTTTTTAAGCTACCAGTTATATGGCCG
modifications: hairpin template with 20 degenerate bases, chemistry not given here

Test system: 3′-OH nucleotides
Assay: Purification (polishing) of heated 3′-blocked nucleotides with Klenow polymerase and different templates, then 2×151 cycle sequencing on MINISEQ (FIG. 8)
Format: biochemical
Details: Klenow polymerase, 30 minutes at 37° C., nucleotides heated 5 hours at 55° C.
Protocol: FIG. 8 is a plot of phasing and prephasing during polymerization of 3′-blocked nucleotides that were purified using different conditions. More specifically, an aqueous solution of 3′-blocked nucleotides blocked with azidomethyl groups was heated for 5 hours at 55° C. so as to simulate nucleotide stress conditions and convert a portion of the 3′-blocked nucleotides to 3′-OH nucleotides. The resulting aqueous mixture of 3′-blocked nucleotides and 3′-OH nucleotides was purified for 30 minutes at 37° C. in a manner such as described with reference to FIGS. 1A-1B and 3, using the Klenow polymerase and different conditions, e.g., different templates, and different concentrations of templates, such as described further below. The purified 3′-blocked nucleotides then were used in a sequencing reaction, using 2×151 cycle runs on the MINISEQ® sequencing-by-synthesis instrument (Ilumina, Inc., San Diego Calif.) using the PhiX library as templates. The purified nucleotides behaved similarly in the two sequencing reads (R1 and R2). The accumulated prephasing over 150 cycles of read 1 (R1 C150% prephasing weight) and the accumulated phasing over 150 cycles of read 1 (R1 C150% phasing weight) after 3′-blocked nucleotide polymerization was measured for the purified 3′-blocked nucleotides, as well as for heated and unpurified 3′-blocked nucleotides and for unheated 3′-blocked nucleotides.
The effect of concentration of a first example template was determined. More specifically, the next data points to the right (“50 nM”) correspond to polymerization of 3′-blocked nucleotides that had been heated as indicated above and were purified using 50 nM of a 20N template of sequence 5′-NNNNNNNNNNNNNNNNNNNNCGGCCATATAACTGGTAGCTT-3′ (SEQ ID NO: 5), whereN are degenerated bases, combined in equimolar amount with a primer oligonucleotide sequence AAGCTACCAGTTATATGGCCG (SEQ ID NO: 6). […] From a comparison of the data points corresponding to different concentrations of the 20N template, it may be understood that with increased concentration of 20N template, prephasing approached a similar prephasing as for the unheated (“std”) 3′-blocked nucleotides.
Different templates were used to determine their effect on phasing and prephasing. More specifically, the next data points to the right (“4N”) correspond to polymerization of 3′-blocked nucleotides that had been heated as indicated above and were purified using 200 nM of a 4N template of sequence 5′-NNN NCGGC CAT ATA ACT GGT AGCTT-3′ (SEQ ID NO: 7) where N are degenerated bases, combined in equimolar amount with primer oligonucleotide sequence AAGCTACCAGTTATATGGCCG (SEQ ID NO: 6). […] The next data points to the right (“6N”) correspond to polymerization of 3′-blocked nucleotides that had been heated as indicated above and were purified using 200 nM of a 6N template of sequence 5′-[…]-3′ (SEQ ID NO: 8), combined in equimolar amount with primer oligonucleotide sequence AAGCTACCAGTTATATGGCCG (SEQ ID NO: 6).
The next data points to the right correspond to polymerization of 3′-blocked nucleotides that had been heated as indicated above and were purified using 200 nM of a mixture of 4 hairpin templates, each template corresponding to one base, of respective sequences GGGGGGGGGGGGCGGCCATATAACTGGTCACTCCAGTTATATGGCCG (hairpin G) (SEQ ID NO: 9), TTTTTTTTTTTTCGGCCATAT AACTGG TCACTCCAGTTATATGGCCG (hairpin T) (SEQ ID NO: 10), CCCCCCCCCCCCCGGCCATAT AACTGG TCACTCCAGTTATATGGCCG (hairpin C) (SEQ ID NO: 11), AAAAAAAAAAAACGGCCATATAACTGGTCACTCCAGTTATATGGCCG (hairpin A) (SEQ ID NO: 12). The hairpin templates were added to the reaction at the same concentration to reach a final concentration of 200 nM of DNA. […]

Row | Molecule | R1 C150 phasing weight (200 nM template) | R1 C150 prephasing weight (200 nM template) | R1 C150 phasing weight (50 nM template) | R1 C150 prephasing weight (50 nM template) | R1 C150 phasing weight (300 nM template) | R1 C150 prephasing weight (300 nM template) | R1 C150 phasing weight (500 nM template) | R1 C150 prephasing weight (500 nM template)
1 | 5′-NNN NCGGC CAT ATA ACT GGT AGCTT-3′ (DNA NNNNCGGCCATATAACTGGTAGCTT; degenerate-base DNA template for purifying nucleotides, chemistry not given here) [4N template] | about 18.5% | about 21% | – | – | – | – | – | –
2 | 5′-NNNNNNNNNNNNNNNNNNNNCGGCCATATAACTGGTAGCTT-3′ [20N template] | about 18.5% | about 16.5% | about 12% | about 24% | about 19% | about 13% | about 23% | about 17%
3 | 5′-NNNNNNCGGCCATATAACTGGTAGCTT-3′ (degenerate-base DNA template, chemistry not given here) [6N template] | about 15% | about 17.5% | – | – | – | – | – | –
4 | B1 | about 12% | about 16% | – | – | – | – | – | –
